{"source": "patent US9908877B2", "about": "“Imidazo[1,5-a]pyridinium ion fluorophores, and methods of making and using the same” (Indiana University Research and Technology Corporation, priority 2013, dated 2018)", "assay_type_in_all_cases": "physicochemical", "key": {"[1]": {"assay": "Fluorescence emission spectrum (maximum emission wavelength)", "procedure": "Method for Obtaining a Fluorescence Emission Spectrum\nFluorescence emission spectra are obtained and recorded on a QM-4-CW Spectrofluorometer using FeliX32 software (Photon Technology International, Inc., Birmingham, N.J.).\n(§1) The compounds were analyzed at 298° K according to the Method for Obtaining Ultraviolet-Visible Light Spectrum (30 μM acetonitrile) to obtain the maximum absorbance wavelength (λabs,max), Method for Obtaining Fluorescence Emission Spectrum (30 μM acetonitrile) to obtain the maximum emission wavelength (λem,max) and Method for Determining Quantum Yield (ΦF) (30 μM acetonitrile) at the concentration, in the solvent, and with the counter ion indicated in Table 1. The compounds included hydrogen at each R group that is not otherwise specified.\n(§2) Compounds 6, 7, 9, 11-14 and 21 were analyzed according to: the Method for Obtaining Ultraviolet-Visible Light Spectrum to obtain the maximum absorbance wavelength (λabs,max), the Method for Obtaining Fluorescence Emission Spectrum to obtain the maximum emission wavelength (λem,max), and the Method for Determining Quantum Yield (ΦF) in the solvent and with the counter ion indicated in Table 3."}, "[2]": {"assay": "Ultraviolet-visible light spectrum (maximum absorbance wavelength)", "procedure": "Method for Obtaining an Ultraviolet-Visible Light Spectrum\nUltraviolet-visible (UV-Vis) Light spectra are obtained and recorded on an Agilent 8453 spectrophotometer using ChemStation software (Agilent Technologies, Inc., Santa Clara, Calif.).\nas §1, §2"}, "[3]": {"assay": "Fluorescence quantum yield, integrating sphere", "conditions": "for ΦF (quantum yield): 30 μM acetonitrile, 298 K, Table 1", "procedure": "Method for Determining Quantum Yield\nQuantum yield is determined using an integrating sphere attached to a QM-4-CW Spectrofluorometer using FeliX32 software (Photon Technology International).\nas §1, §2"}, "[4]": {"conditions": "30 μM acetonitrile, 298 K, Table 1"}}}
{"smiles": "CCCCn1c[n+]2ccccc2c1-c1ccc(N(CC)CC)cc1", "note": "[Compound 5, 2-butyl-1-(4-(diethylamino)phenyl)-2H-imidazo[1,5-a]pyridin-4-ium tetraphenylborate]", "values": [{"measurement": "λem, max Em", "setting": "[1]; [4]", "result": 550, "unit": "nm"}, {"measurement": "λabs, max Abs", "setting": "[2]; [4]", "result": 355, "unit": "nm"}, {"measurement": "ΦF (quantum yield)", "setting": "[3]", "result": 38, "unit": "%"}]}
{"smiles": "CCN(CC)c1ccc(-n2cc(-c3cccc4cn(-c5ccc(C)cc5)c[n+]34)nn2)cc1.[Cl-]", "note": "[Compound 14, 5-(1-(4-(diethylamino)phenyl)-1H-1,2,3-triazol-4-yl)-2-(p-tolyl)-2H-imidazo[1,5-a]pyridin-4-ium chloride]", "values": [{"measurement": "λem, max Em", "setting": "[1]; H2O pH = 2.2, 30 μM", "result": 405, "unit": "nm"}, {"measurement": "λem, max Em", "setting": "[1]; MeCN + excess TFA, 30 μM", "result": 410, "unit": "nm"}, {"measurement": "λabs, max Abs", "setting": "[2]; H2O pH = 2.2, 30 μM", "result": 340, "unit": "nm"}, {"measurement": "λabs, max Abs", "setting": "[2]; H2O pH = 7.5, 30 μM", "result": 340, "unit": "nm"}, {"measurement": "λabs, max Abs", "setting": "[2]; MeCN + excess TFA, 30 μM", "result": 340, "unit": "nm"}, {"measurement": "λabs, max Abs", "setting": "[2]; MeCN, 30 μM", "result": 340, "unit": "nm"}, {"measurement": "[…]F (quantum yield)", "setting": "[3]; H2O pH = 2.2, 30 μM", "result": 53, "unit": "%"}, {"measurement": "[…]F (quantum yield)", "setting": "[3]; H2O pH = 7.5, 30 μM", "result": 0, "unit": "%"}, {"measurement": "[…]F (quantum yield)", "setting": "[3]; MeCN + excess TFA, 30 μM", "result": 64, "unit": "%"}, {"measurement": "[…]F (quantum yield)", "setting": "[3]; MeCN, 30 μM", "result": 0, "unit": "%"}]}
{"smiles": "CCCCn1c[n+]2ccccc2c1-c1ccc(C)cc1", "note": "[Compound 3, 2-butyl-1-(p-tolyl)-2H-imidazo[1,5-a]pyridin-4-ium tertraphenylborate]", "values": [{"measurement": "λem, max Em", "setting": "[1]; [4]", "result": 415, "unit": "nm"}, {"measurement": "λabs, max Abs", "setting": "[2]; [4]", "result": 320, "unit": "nm"}, {"measurement": "ΦF (quantum yield)", "setting": "[3]", "result": 46, "unit": "%"}]}
{"smiles": "COc1ccc(-n2cc3cccc(-c4ccc(N(C)C)cc4)[n+]3c2)cc1", "note": "[Compound 21, 5-(4-(dimethylamino)phenyl)-2-(4-methoxyphenyl)-2H-imidazo[1,5-a]pyridin-4-ium tetraphenylborate]", "values": [{"measurement": "λem, max Em", "setting": "[1]; MeCN, 30 μM", "result": 540, "unit": "nm"}, {"measurement": "λabs, max Abs", "setting": "[2]; MeCN, 30 μM", "result": 360, "unit": "nm"}, {"measurement": "[…]F (quantum yield)", "setting": "[3]; MeCN, 30 μM", "result": 10, "unit": "%"}]}
{"smiles": "Cc1ccc(-n2cc3cccc(-c4cn(-c5ccc(N(C)C)cc5)nn4)[n+]3c2)cc1.[Cl-]", "note": "[Compound 13, 5-(1-(4-(dimethylamino)phenyl)-1H-1,2,3-triazol-4-yl)-2-(p-tolyl)-2H-imidazo[1,5-a]pyridin-4-ium chloride]", "values": [{"measurement": "λem, max Em", "setting": "[1]; H2O pH = 2.5, 30 μM", "result": 405, "unit": "nm"}, {"measurement": "λem, max Em", "setting": "[1]; MeCN + 50 μL TFA, 30 μM", "result": 410, "unit": "nm"}, {"measurement": "λabs, max Abs", "setting": "[2]; H2O pH = 2.5, 30 μM", "result": 340, "unit": "nm"}, {"measurement": "λabs, max Abs", "setting": "[2]; H2O pH = 7.5, 30 μM", "result": 340, "unit": "nm"}, {"measurement": "λabs, max Abs", "setting": "[2]; MeCN + 50 μL TFA, 30 μM", "result": 340, "unit": "nm"}, {"measurement": "λabs, max Abs", "setting": "[2]; MeCN, 30 μM", "result": 340, "unit": "nm"}, {"measurement": "[…]F (quantum yield)", "setting": "[3]; H2O pH = 2.5, 30 μM", "result": 59, "unit": "%"}, {"measurement": "[…]F (quantum yield)", "setting": "[3]; H2O pH = 7.5, 30 μM", "result": 0, "unit": "%"}, {"measurement": "[…]F (quantum yield)", "setting": "[3]; MeCN + 50 μL TFA, 30 μM", "result": 67, "unit": "%"}, {"measurement": "[…]F (quantum yield)", "setting": "[3]; MeCN, 30 μM", "result": 0, "unit": "%"}]}
{"smiles": "CCCCn1cc2cccc(-c3ccc(N(C)C)cc3)[n+]2c1", "note": "[Compound 9, 2-butyl-5-(4-(dimethylamino)phenyl)-2H-imidazo[1,5-a]pyridin-4-ium tetraphenylborate]", "values": [{"measurement": "λem, max Em", "setting": "[1]; MeCN, 30 μM", "result": 490, "unit": "nm"}, {"measurement": "λabs, max Abs", "setting": "[2]; MeCN, 30 μM", "result": 350, "unit": "nm"}, {"measurement": "[…]F (quantum yield)", "setting": "[3]; MeCN, 30 μM", "result": 75, "unit": "%"}]}
{"smiles": "CCCCn1c[n+]2ccccc2c1-c1ccc(OC)cc1.[Cl-]", "note": "[Compound 4, 2-butyl-1-(4-methoxyphenyl)-2H-imidazo[1,5-a]pyridin-4-ium chloride]", "values": [{"measurement": "λem, max Em", "setting": "[1]; [4]", "result": 430, "unit": "nm"}, {"measurement": "λabs, max Abs", "setting": "[2]; [4]", "result": 320, "unit": "nm"}, {"measurement": "ΦF (quantum yield)", "setting": "[3]", "result": 64, "unit": "%"}]}
